Measured values as given in patent US9079929B2, “Substituted tetrahydroisoquinoline compounds as factor XIa inhibitors” (priority 2011, dated 2015).
Counter-ions that a name gives are not always drawn.

biological target: human Factor XIa (Homo sapiens (Human), UniProt P03951); assay: Factor XIa enzyme inhibition assay (chromogenic substrate S-2366); assay type: biochemical; details: purified human Factor XIa, substrate S-2366, pH 7.4
Procedure: The results of this assay are expressed as the inhibitory constant, Ki.
Values of Ki were determined by allowing the protease to react with the substrate in the presence of the inhibitor. Reactions were allowed to go for periods of 20-180 minutes (depending on the protease) and the velocities (rate of absorbance or fluorescence change versus time) were measured. The following relationships were used to calculate Ki values:
vs/vo=A+((B−A)/1+((IC50/(I)n))); and […]

human Factor XIa, sequence (P03951 whole entry, looked up): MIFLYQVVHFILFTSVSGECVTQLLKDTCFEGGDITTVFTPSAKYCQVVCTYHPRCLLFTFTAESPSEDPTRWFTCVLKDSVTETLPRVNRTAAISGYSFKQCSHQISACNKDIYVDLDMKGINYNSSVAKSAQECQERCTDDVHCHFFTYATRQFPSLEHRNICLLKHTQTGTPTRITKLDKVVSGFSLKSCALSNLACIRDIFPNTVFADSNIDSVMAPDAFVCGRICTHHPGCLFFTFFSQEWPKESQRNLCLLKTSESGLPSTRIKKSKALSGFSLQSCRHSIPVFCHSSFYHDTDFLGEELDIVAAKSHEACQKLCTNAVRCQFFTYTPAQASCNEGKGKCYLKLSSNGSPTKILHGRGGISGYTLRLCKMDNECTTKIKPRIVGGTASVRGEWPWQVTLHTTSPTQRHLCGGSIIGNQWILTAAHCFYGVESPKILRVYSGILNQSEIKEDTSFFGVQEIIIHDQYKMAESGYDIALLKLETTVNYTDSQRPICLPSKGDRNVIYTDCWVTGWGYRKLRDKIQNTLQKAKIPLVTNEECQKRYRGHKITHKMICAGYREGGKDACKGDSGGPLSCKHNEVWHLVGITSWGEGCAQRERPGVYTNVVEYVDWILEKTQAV
human Factor XIa, sequence (P03951 whole entry partner, looked up): as the sequence (P03951 whole entry, looked up) above

Q: With `CS(=O)(=O)Nc1cccc2c1CCN(C(=O)/C=C/c1c(-n3cnnn3)ccc(Cl)c1F)C2C(=O)Nc1ccc(C(=O)O)cc1` (stereo not drawn) [Example 9, (E)-4-(2-(3-(3-chloro-2-fluoro-6-(1H-tetrazol-1-yl)phenyl)acryloyl)-5-(methylsulfonamido)-1,2,3,4-tetrahydroisoquinoline-1-carboxamido)benzoic acid] as the molecule, how does the Ki read?
A: < 5 nM

Q: For `O=C(O)c1ccc(NC(=O)C2c3cccc(C(=O)N4CCNCC4)c3CCN2C(=O)/C=C/c2c(-n3cnnn3)ccc(Cl)c2F)cc1` (stereo not drawn) [Example 30], which Ki is on record?
A: < 5 nM

Q: Which Ki does the source give for `CN(C)c1ccc(-c2cccc3c2CCN(C(=O)/C=C/c2c(-n4cnnn4)ccc(Cl)c2F)C3C(=O)Nc2ccc(C(=O)O)cc2)cn1` (stereo not drawn) [Example 191] here?
A: < 5 nM

Q: For `COCCNC(=O)c1cccc2c1CCN(C(=O)/C=C/c1cc(Cl)ccc1-n1cnnn1)C2C(=O)Nc1ccc(C(=O)O)cc1` (stereo not drawn) [Example 3, (E)-4-(2-(3-(5-Chloro-2-(1H-tetrazol-1-yl)phenyl)acryloyl)-5-(2-methoxyethylcarbamoyl)-1,2,3,4-tetrahydroisoquinoline-1-carboxamido)benzoic acid], which Ki is on record?
A: 21.3 nM

Q: For `CN(C)CCOc1cccc2c1CCN(C(=O)/C=C/c1c(-n3cnnn3)ccc(Cl)c1F)C2C(=O)Nc1ccc(C(=O)O)cc1` (stereo not drawn) [Example 132, (E)-4-(2-(3-(3-chloro-2-fluoro-6-(1H-tetrazol-1-yl)phenyl)acryloyl)-5-(2-(dimethylamino)ethoxy)-1,2,3,4-tetrahydroisoquinoline-1-carboxamido)benzoic acid, TFA salt], which Ki is on record?
A: < 5 nM

Q: For `CC(=O)c1ccc(Cl)c(F)c1/C=C/C(=O)N1CCc2c(O)cccc2C1C(=O)Nc1ccc(C(=O)O)cc1` (stereo not drawn) [Example 146, (E)-4-(2-(3-(6-acetyl-3-chloro-2-fluorophenyl)acryloyl)-5-hydroxy-1,2,3,4-tetrahydroisoquinoline-1-carboxamido)benzoic acid], which Ki is on record?
A: 24.8 nM

Q: Which Ki does the source give for `CC[C@H](C)NC(=O)C1c2cccc(-c3ccc(C(=O)NC)cc3)c2CCN1C(=O)/C=C/c1c(-n2cnnn2)ccc(Cl)c1F` (stereo partly drawn) [Example 65] here?
A: 49.2 nM

Q: For `CNC(=O)c1ccc(-c2cccc3c2CCN(C(=O)/C=C/c2c(-n4cnnn4)ccc(Cl)c2F)C3C(=O)NCC(=O)OC)cc1` (stereo not drawn) [Example 61], which Ki is on record?
A: 342 nM

Q: For `CC(C)(C)OC(=O)c1ccc(NC(=O)C2c3cccc(C(=O)N4CCN(C(=O)OC(C)(C)C)CC4)c3CCN2C(=O)/C=C/c2c(-n3cnnn3)ccc(Cl)c2F)cc1` (stereo not drawn) [Example 24], which Ki is on record?
A: 170 nM

Q: `O=C(O)c1ccc(NC(=O)C2c3cccc(OC4CCNCC4)c3CCN2C(=O)/C=C/c2c(-n3cnnn3)ccc(Cl)c2F)cc1` (stereo not drawn) [Example 108, (E)-4-(2-(3-(3-Chloro-2-fluoro-6-(1H-tetrazol-1-yl)phenyl)acryloyl)-5-(piperidin-4-yloxy)-1,2,3,4-tetrahydroisoquinoline-1-carboxamido)benzoic acid, TFA salt] was tested. Which Ki did it give?
A: < 5 nM

Q: With `COc1ccc(-c2cccc3c2CCN(C(=O)/C=C/c2c(-n4cnnn4)ccc(Cl)c2F)C3C(=O)Nc2ccc(C(=O)O)cc2)c(Cl)c1` (stereo not drawn) [Example 47, (E)-4-(2-(3-(3-chloro-2-fluoro-6-(1H-tetrazol-1-yl)phenyl)acryloyl)-5-(2-chloro-4-methoxyphenyl)-1,2,3,4-tetrahydroisoquinoline-1-carboxamido)benzoic acid] as the molecule, how does the Ki read?
A: < 5 nM

Q: For `CCOC(=O)[C@H]1CCCN(C(=O)c2cccc3c2CCN(C(=O)/C=C/c2c(-n4cnnn4)ccc(Cl)c2F)C3C(=O)Nc2ccc(NC(=O)OC)cc2)C1` (stereo partly drawn) [Example 16], which Ki is on record?
A: 332 nM

Q: How did the Ki turn out when `CN(C)CCNC(=O)c1ccc(-c2cccc3c2CCN(C(=O)/C=C/c2c(-n4cnnn4)ccc(Cl)c2F)C3C(=O)Nc2ccc(C(=O)OC(C)(C)C)cc2)cc1` (stereo not drawn) [Example 89] was run?
A: < 5 nM

Q: With `CN(C)CCNC(=O)c1ccc(-c2cccc3c2CCN(C(=O)/C=C/c2c(-n4cnnn4)ccc(Cl)c2F)[C@H]3C(=O)Nc2ccc(C(=O)OCc3ccccn3)cc2)cc1` [Example 98] as the molecule, how does the Ki read?
A: 132 nM

Q: Which Ki does the source give for `O=C(O)c1ccc(NC(=O)C2c3cccc(C(=O)N4CCNCC4)c3CCN2C(=O)/C=C/c2c(-n3cnnn3)ccc(Cl)c2F)cc1` (stereo not drawn) [Example 29] here?
A: 553 nM

Q: With `CCOC(=O)c1ccc(NC(=O)[C@H]2c3cccc(OCCC4CCNCC4)c3CCN2C(=O)/C=C/c2c(-n3cnnn3)ccc(Cl)c2F)cc1` [Example 160, (R,E)-ethyl 4-(2-(3-(3-chloro-2-fluoro-6-(1H-tetrazol-1-yl)phenyl)-acryloyl)-5-(2-(piperidin-4-yl)ethoxy)-1,2,3,4-tetrahydroisoquinoline-1-carboxamido)benzoate, TFA salt] as the molecule, how does the Ki read?
A: 3530 nM

Q: `CNC(=O)c1ccc(-c2cccc3c2CCN(C(=O)/C=C/c2c(-n4cnnn4)ccc(Cl)c2F)C3C(=O)Nc2ccc(C(=O)O)cc2)cn1` (stereo not drawn) [Example 78] was tested. Which Ki did it give?
A: < 5 nM

Q: How did the Ki turn out when `COC(=O)Nc1ccc(-c2cccc3c2CCN(C(=O)/C=C/c2c(-n4cnnn4)ccc(Cl)c2F)[C@H]3C(=O)Nc2ccc(F)cc2)cc1` [Example 50, (R,E)-Methyl 4-(2-(3-(3-chloro-2-fluoro-6-(1H-tetrazol-1-yl)phenyl)acryloyl)-1-(4-fluorophenylcarbamoyl)-1,2,3,4-tetrahydroisoquinolin-5-yl)phenylcarbamate] was run?
A: 3370 nM

Q: With `Cn1nccc1-c1cccc2c1CCN(C(=O)/C=C/c1c(-n3cnnn3)ccc(Cl)c1F)C2C(=O)Nc1ccc(C(=O)O)cc1` (stereo not drawn) [Example 173, (E)-4-(2-(3-(3-Chloro-2-fluoro-6-(1H-tetrazol-1-yl)phenyl)acryloyl)-5-(1-methyl-1H-pyrazol-5-yl)-1,2,3,4-tetrahydroisoquinoline-1-carboxamido)benzoic acid] as the molecule, how does the Ki read?
A: < 5 nM

Q: How did the Ki turn out when `CNC(=O)c1ccc(-c2cccc3c2CCN(C(=O)/C=C/c2c(-n4cnnn4)ccc(Cl)c2F)C3C(=O)NCc2nccn2C)cc1` (stereo not drawn) [Example 66] was run?
A: 534 nM

Q: For `CNC(=O)c1ccc(-c2cccc3c2CCN(C(=O)/C=C/c2c(-n4cnnn4)ccc(Cl)c2F)C3C(=O)Nc2ccc3c(c2)CN=N3)cc1` (stereo not drawn) [Example 80], which Ki is on record?
A: 20.1 nM

Q: For `CCOC(=O)c1ccc(NC(=O)C2c3cccc(-c4ccc(C(=O)NC)nc4)c3CCN2C(=O)/C=C/c2c(-n3cnnn3)ccc(Cl)c2F)cc1` (stereo not drawn) [Example 188], which Ki is on record?
A: 3860 nM

Q: How did the Ki turn out when `CCOC(=O)CCCNC(=O)c1cccc2c1CCN(C(=O)/C=C/c1c(-n3cnnn3)ccc(Cl)c1F)C2C(=O)Nc1ccc(F)cc1` (stereo not drawn) [Example 14] was run?
A: 580 nM

Q: How did the Ki turn out when `CC(=O)c1ccc(Cl)c(F)c1/C=C/C(=O)N1CCc2c(-c3ccc(C(N)=O)cc3)cccc2[C@@H]1C(=O)Nc1ccc(C(=O)O)cc1` [Example 120] was run?
A: 291 nM

Q: How did the Ki turn out when `CC(=O)c1ccc(Cl)c(F)c1/C=C/C(=O)N1CCc2c(-c3ccc(C(=O)NCCN(C)C)cc3)cccc2[C@@H]1C(=O)Nc1ccc(C(=O)O)cc1` [Example 150, (R,E)-4-(2-(3-(6-Acetyl-3-chloro-2-fluorophenyl)acryloyl)-5-(4-(2-(dimethylamino)ethylcarbamoyl)phenyl)-1,2,3,4-tetrahydroisoquinoline-1-carboxamido)benzoic acid, TFA salt] was run?
A: 37 nM

Q: With `CN(C)CCNC(=O)c1ccc(-c2cccc3c2CCN(C(=O)/C=C/c2c(-n4cnnn4)ccc(Cl)c2F)[C@H]3C(=O)Nc2ccc(C(=O)OCCN(C)C)cc2)cc1` [Example 93, (R,E)-2-(dimethylamino)ethyl 4-(2-(3-(3-chloro-2-fluoro-6-(1H-tetrazol-1-yl)phenyl)acryloyl)-5-(4-((2-(dimethylamino)ethyl)carbamoyl)phenyl)-1,2,3,4-tetrahydroisoquinoline-1-carboxamido)benzoate; bis-TFA salt] as the molecule, how does the Ki read?
A: 951 nM

Q: How did the Ki turn out when `CCOC(=O)c1ccc(NC(=O)C2c3cccc(OCCC4CCN(C)CC4)c3CC(C)(C)N2C(=O)/C=C/c2c(-n3cnnn3)ccc(Cl)c2F)cc1` (stereo not drawn) [Example 152, (E)-ethyl 4-(2-(3-(3-chloro-2-fluoro-6-(1H-tetrazol-1-yl)phenyl)acryloyl)-3,3-dimethyl-5-(2-(1-methylpiperidin-4-yl)ethoxy)-1,2,3,4-tetrahydroisoquinoline-1-carboxamido)benzoate, TFA salt] was run?
A: 100 nM
